Measurements taken from patent US20230279002A1, “Polymorphs of Crystalline Forms of 3,10-dimethoxy-5,8,13,13a-tetrahydro-6H-isoquinolino[3,2-a]isoquinolin-9-yl 3-fluorobenzenesulfonate and Salts Thereof” (CVI Pharmaceuticals Limited, priority 2020, published 2023).
Converted amounts (≈) assume the structure as drawn.

Legend:
Format in all cases: physicochemical
[1] = Solvent evaporation, solid form by XRPD
Procedure: Solvent evaporation: About 20 mg 2a was dissolved in organic solvents. The solution was filtrated and dried in the air. The obtained solid part from the evaporation process was analyzed by XRPD.

[2] = Apparent solubility in organic solvents (visual); conditions: for solubility: thermodynamic from solid
Procedure: Solubility: 2a substance was equilibrated with organic solvents to visually test the apparent solubility. The experiment was terminated once or if the target of 20 mg/mL was achieved.

[3] = Crystallization from hot saturated solutions, solid form by XRPD; conditions: for Solid form: EtOH, XRPD
Procedure: Crystallization from hot saturated solutions: About 100 mg 2a was dissolved with minimal amount of solvent at about 60° C. The solution was filtrated and separated into two portions. One portion was put in ice bath and agitated till the end of the experiment; the other portion was cooled down naturally. The precipitates were collected on a filter, dried and analyzed by XRPD.

[4] = Precipitation by addition of anti-solvent, solid form by XRPD
Procedure: The precipitates were collected and analyzed by XRPD.
2a was dissolved in ACN or MeOH, and water or heptane was added as anti-solvent. […] The XRPD pattern of compound 2a (bottom) and compound 2a dissolved in ACN then precipitated with heptane (top) is shown in FIG. 6. The XRPD pattern of compound 2a (bottom trace) and compound 2a dissolved in MeOH then precipitated with heptane (top trace) or water (center trace) is shown in FIG. 7.

[5] = Equilibration with solvent at 25° C. and 50° C. (slurry), solid form by XRPD
Procedure: Equilibration with solvent at 25° C. and 50° C.: About 50 mg of 2a was equilibrated with 1 ml solvents at 25° C. and 50° C. After stirring for 1 day and 7 days, the suspensions were centrifuged. The solid part was collected and analyzed by XRPD, then dried in the air for 10 min and analyzed by XRPD. After equilibrium with solvent at 25° C. and 50° C. for 1 and 7 days, the crystal form was not changed. […] The XRPD spectra of the solid equilibrated with each solvent listed in Table 12, at 25° C. and 50° C., are shown overlaid that of undisturbed 2a in FIG. 8 through FIG. 14.

Solid form after evaporation ([1]; ACN): Amorphous
Solid form after evaporation ([1]; Acetone): Amorphous
Solid form after evaporation ([1]; EtOH): Amorphous
Solid form after evaporation ([1]; MeOH): Amorphous
solubility ([2]; 50% EtOH (aq), aqueous with cosolvent or surfactant or cyclodextrin): < 990 µg/mL
Solubility (mg/ml) ([2]; ACN): 6.17~18.5 mg/ml
solubility ([2]; EtOH, organic solvent or mixture): 2100 to 3150 µg/mL (≈ 4.47 to 6.71 mM)
solubility ([2]; THF, organic solvent or mixture): < 1140 µg/mL
solubility ([2]; acetone, organic solvent or mixture): 2220 to 3330 µg/mL (≈ 4.73 to 7.09 mM)
solubility ([2]; acetonitrile, organic solvent or mixture, ACN): 6170 to 18500 µg/mL (≈ 13.1 to 39.4 mM)
solubility ([2]; ethyl acetate, organic solvent or mixture): < 1800 µg/mL
solubility ([2]; heptane, organic solvent or mixture): < 1430 µg/mL
solubility ([2]; methanol, organic solvent or mixture, MeOH): > 17000 µg/mL
solubility ([2]; water): < 1080 µg/mL
Solid form ([3]; quick (ice bath)): partially crystalline
Solid form ([3]; slow (cooled down naturally)): no crystal, failed
Solid form after crystallization from hot saturated solutions ([3]; dissolved at about 60° C., cooled): partially crystalline
Crystal form after precipitation by anti-solvent ([4]; heptane as anti-solvent (ACN or MeOH solution)): not changed
Solid form ([4]; solvent ACN, anti-solvent Heptane (6 volumes)): Crystal, no change
Solid form ([4]; solvent ACN, anti-solvent Water (6 volumes)): No crystal, failed
Solid form ([4]; solvent MeOH, anti-solvent Heptane (3 volumes)): Crystal, no change
Solid form ([4]; solvent MeOH, anti-solvent Water (2 volumes)): Amorphous
Crystal form after precipitation by anti-solvent ([4]; water added to MeOH solution): transformed to amorphous
Crystal form after equilibration with solvent ([5]; 25° C. and 50° C., 1 and 7 days): not changed
Slurry solid form ([5]; 50% EtOH (aq), 25° C.-1 day): Crystal, no change
Slurry solid form ([5]; 50% EtOH (aq), 25° C.-7 day): Crystal, no change
Slurry solid form ([5]; 50% EtOH (aq), 50° C.-1 day): partially crystalline
Slurry solid form ([5]; ACN, 25° C.-1 day): Crystal, no change
Slurry solid form ([5]; ACN, 25° C.-7 day): Crystal, no change
Slurry solid form ([5]; ACN, 50° C.-1 day): Crystal, no change
Slurry solid form ([5]; Acetone, 25° C.-1 day): Crystal, no change
Slurry solid form ([5]; Acetone, 25° C.-7 day): Crystal, no change
Slurry solid form ([5]; Acetone, 50° C.-1 day): Crystal, no change
Slurry solid form ([5]; EtOAc, 25° C.-1 day): Crystal, no change
Slurry solid form ([5]; EtOAc, 25° C.-7 day): Crystal, no change
Slurry solid form ([5]; EtOAc, 50° C.-1 day): Crystal, no change
Slurry solid form ([5]; EtOH, 25° C.-1 day): Crystal, no change
Slurry solid form ([5]; EtOH, 25° C.-7 day): Crystal, no change
Slurry solid form ([5]; EtOH, 50° C.-1 day): Crystal, no change
Slurry solid form ([5]; IPA, 25° C.-1 day): Crystal, no change
Slurry solid form ([5]; IPA, 25° C.-7 day): Crystal, no change
Slurry solid form ([5]; MeOH, 25° C.-1 day): Crystal, no change
Slurry solid form ([5]; MeOH, 25° C.-7 day): Crystal, no change
Slurry solid form ([5]; MeOH, 50° C.-1 day): Clear solution
Slurry solid form ([5]; THF, 25° C.-1 day): Crystal, no change
Slurry solid form ([5]; THF, 25° C.-7 day): Crystal, no change
Slurry solid form ([5]; THF, 50° C.-1 day): Crystal, no change
Slurry solid form ([5]; Water, 25° C.-1 day): Crystal, no change
Slurry solid form ([5]; Water, 25° C.-7 day): Crystal, no change
Slurry solid form ([5]; Water, 50° C.-1 day): partially crystalline
Compound: COc1ccc2c(c1)CCN1Cc3c(ccc(OC)c3OS(=O)(=O)c3cccc(F)c3)C[C@H]21 [Compound 2a]
